From patent publication US7732458B2 (priority 2004, dated 2010)
Values after ≈ are worked out from the molar mass of the structure shown. Where two headings read alike, the source gives them in different places.

Key:
[1] = tested on: influenza A1 virus; experiment: Anti-influenza virus experiment in MDCK cells; type: cell-based; conditions: for IC50: 72 h, MDCK cells, 3 days
[2] = normal mice; cited from earlier work
[3] = tested on: acute liver injury induced by thioacetamide; experiment: Model of acute liver injury induced by thioacetamide in mice; type: in vivo, Kunming mice; conditions: thioacetamide 30 mg/kg, X ± SD, n = 20; for ALT / AST: blood 24 hours after final dose
Procedure: The model of acute liver injury induced by thioacetamide in mice Experimental animals: Kunming mice, male or female, weighing 19-22 g, are used in the study. Animals are housed in an animal room with a natural photoperiod and room temperature (23±2° C.), and maintained with free access to standard rodent pellet food and water ad libitum. […] All mice are randomly divided to 7 groups. […] Then all groups are successively dosed three times at an interval of 3 hours, 6 hours and 9 hours after being infected, and the blood samples were obtained at 24 hours (i.e. the next day) after the final dose. The follow markers and liver weight were measured and also the pathological examination were performed (Table 2).

[4] = tested on: arrhythmia induced by aconitine; experiment: Arrhythmia induced by aconitine in rats; type: in vivo, Wistar rats; conditions: for preventive effects on arrhythmia induced by aconitine (in words): intravenously injected, aconitine dosage increased, VT/VF postponed
Procedure: The antagonistic effects of the dehydrocavidine species compounds on arrhythmia induced by aconitine
The samples are dissolved in hot normal saline up to the needed concentration. Normal saline serves as the control solution. Propafenone serves as a positive control sample.
Wistar rats of both sexes are randomly grouped and anesthetized by urethane (1.2 g/kg), II lead electrocardiogram is recorded. The groups are administered the following drugs by vena femoralis injection: (1) the compound (5 mg/kg, if possible 2.5 mg/kg), (2) propafenone (7 mg/kg), (3) control solution (2 mg/kg). After 5 minutes, aconitine solution (5 μg/ml) was delivered intravenously at a constant speed of 0.08 ml/min. The volume of aconitine solution is recorded when VP, VT and VF occur, and the electrocardiogram is also recorded. EV50 (VF) values are calculated by regression analysis on the basis of the dosage of aconitine consumed by VF in each experiment.

[5] = tested on: hepatic toxicity induced by D-galactosamine; experiment: Model of hepatic toxicity induced by D-galactosamine in rats; type: in vivo; conditions: D-galactosamine 800 mg/kg i.p. (Table 4), X ± SD, n = 20
Procedure: 3. The Model of Hepatic Toxicity Induced by D-Galactosamine in Rats […] Animals are maintained with free access to standard rodent pellet food and water ad libitum. All rats are randomly divided into 4 groups. All groups except the control group are treated simultaneously with 800 mg/kg of 50 percent D-galactosamine by intraperitoneal injection to induce acute hepatic toxicity model. The blood samples are obtained 12 hours after the final dose for determining SGPT and TBIL. The animals are killed to measure their liver weight and to perform a pathological examination (Table 4).

[6] = tested on: HBeAg; type: cell-based, hepatitis B virus
[7] = tested on: acute hepatic toxicity induced by carbon tetrachloride; experiment: Model of acute hepatic toxicity induced by carbon tetrachloride in rats; type: in vivo; conditions: blood 12 hours after final dose, X ± SD, n = 20
Procedure: 2. The Model of Acute Hepatic Toxicity Induced by Carbon Tetrachloride in Rats
Matured SD rats, male or female, weighing 250-350 g are used in the study. Animals are maintained with free access to standard rodent pellet food and water ad libitum.
All rats are randomly divided into 6 groups. All the other groups are treated with 0.5 ml/100 g of 50 percent carbon tetrachloride by hypodermic injection to induce acute hepatic toxicity model, except the control group, and are dosed one time simultaneously. Then all groups will be successively dosed at 4 hours and 8 hours, and the blood samples obtained at 12 hours after the final dose for determining ALT and AST. The animals are killed to measure their liver weight and to perform a pathological examination (Table 3).

[8] = tested on: liver fibrosis induced by carbon tetrachloride; experiment: Model of liver fibrosis induced by carbon tetrachloride in rats; type: in vivo, Wistar male rats; conditions: chronic carbon tetrachloride 12 weeks, treated one time a day for 8 weeks, X ± SD, n = 20
Procedure: 4. The Model of Liver Fibrosis Induced by Carbon Tetrachloride in Rats
Wistar male rats, weighing 100-150 g are used in the study. Animals are housed in an animal room with a 12 h: 12 h photoperiod and at 22° C. Animals are maintained with free access to standard rodent pellet food and water ad libitum
All Wistar male rats are treated with 0.3 ml/(100 g body weight) of 40 percent carbon tetrachloride (dissolved in peanut oil) by hypodermic injection twice a week for 12 weeks to induce […] hepatic fibrosis model, all in phase IV. Then all rats in hepatic fibrosis are randomly divided into the following groups: normal saline (NS) group, sample group and positive contrast group. The NS group rats are treated with 0.2 ml normal saline by intramuscular injection for 8 weeks, and simultaneously, all the other groups are treated with samples one time a day for 8 weeks. […] After that, all rats are killed, and the right lobes of the livers are fixed in neutral formaldehyde solution for histological examination.

[9] = tested on: HBsAg; type: cell-based, hepatitis B virus
[10] = tested on: gram-positive bacterium; conditions: in vitro; cited from earlier work
[11] = tested on: smooth muscles of the intestines; conditions: cited from earlier work
[12] = cited from earlier work
[13] = tested on: bacteria; conditions: cited from earlier work
[14] = tested on: cell Hep G2 2.2.15; experiment: Toxicity to cell Hep G2 2.2.15 (MTT method); type: cell-based, human
[15] = tested on: MT4 cells; experiment: Toxicity of compounds on MT4 cells (MTT method); type: cell-based; conditions: 6 days
Procedure: MT4 cells are cultured in 96-well plates (2×10^5 cells/ml, 0.1 ml/well) and the verifying compounds are added and compared against the positive control sample AZT, and the normal cell control group at the same time. Comparisons against DMSO control group and MT4 cell control group are also performed. The culture is maintained at 37° C., 5 percent CO2 for 6 days. The cell activities are tested by the MTT method to determine TC50.

[16] = tested on: central nervous system; conditions: in vivo; cited from earlier work
[17] = tested on: HIV-1 III B; experiment: Inhibition of HIV-induced MT4 cell pathological effects (CPE); type: cell-based; conditions: for IC50: 50 percent effective concentration, CPE in MT4 cells, 72 hours
Procedure: HIV-1 III B comes from the USA; MT4 cell line comes from Japan.
To determine viral toxicity, HIV are diluted 10 fold in 8 serial [Chinese version is unclear, and this is an educated guess] and MT4 cell pathological effects are then observed in the culture solution of RPMI-1640. Calculated TCID50 is 10-6. The normal cell control group and virus control group are also performed. The samples with five concentrations per group that are diluted by 2 times and 100 μl AZT are added in cell or virus cultures. All concentrations of samples are performed in three repeated wells. The experiments are maintained at 37° C., 5 percent CO2 for 72 hours. Then the cell pathological effects (CPE) are observed under an inverted microscope. IC50 and selective index SI (TC50/IC50) are calculated in Table 7.

SMILES | IC50 [1] [µM] | Liver index (g liver wt./100 g body wt.) [3] | ALT [3] | AST [3] | preventive effects on arrhythmia induced by aconitine (in words) [4] | ALT [5] | AST [5] | Liver index (g liver wt./100 g body wt.) [5] | Inhibition frequency to HBeAg (%) ([6]; concentration 0.1 μmol/ml) | Inhibition frequency to HBeAg (%) ([6]; concentration 0.2 μmol/ml) | Inhibition frequency to HBeAg (%) ([6]; concentration 0.4 μmol/ml) | ALT [7] | AST [7] | ALT [8] | AST [8] | Hydroxy-prodine in Liver [8] | Inhibition frequency to HBsAg (%) ([9]; concentration 0.1 μmol/ml) | Inhibition frequency to HBsAg (%) ([9]; concentration 0.2 μmol/ml) | Inhibition frequency to HBsAg (%) ([9]; concentration 0.4 μmol/ml) | TC50 [15] [µg/mL] | other results
NC(=O)c1ncn([C@@H]2O[C@H](CO)[C@@H](O)[C@H]2O)n1 [Ribavirin, reference compound] | 3.2 |  |  |  |  |  |  |  |  |  |  |  |  |  |  |  |  |  |  |  | 
COc1cc2c(cc1OC)-c1c(C)c3ccc4c(c3c[n+]1CC2)OCO4 [dehydrocavidine] | 7.4 | 5.36 ± 0.54 g liver wt./100 g body wt. | 873.50 ± 251.82 | 237.10 ± 73.27 | certain preventive effects on arrhythmia induced by aconitine | 846.28 ± 172.54 | 241.20 ± 65.53 | 5.10 ± 0.36 g liver wt./100 g body wt. | 20.5 | 21.6 | 57.2 | 774.30 ± 217.11 | 1116.54 ± 348.27 | 1113.4 ± 247.6 | 987.3 ± 237.9 | 0.162 ± 0.013 | 28.4 | 31.4 | 34.6 | >1000 | effects on blood sugar levels [2]: no effects on the blood sugar levels in normal mice; ED50 ([4]; Rattus norvegicus, read-out: ED50 (10^−6 mol/Kg)): 7.33 µmol/kg; inhibitory effects on influenza viruses (in words) [1]: markedly inhibitory effects on influenza viruses; inhibitory effect on gram-positive bacterium [10]: certain inhibitory effect on gram-positive bacterium; effects on the smooth muscles of the intestines [11]: antispasm effects on the smooth muscles of the intestines; production of glycogen in vivo [12]: effect on increasing the production of glycogen in vivo; antibacterial effect in vitro [13]: antibacterial effect in vitro; Toxicity to cell ([14]; concentration 0.1 μmol/ml): − (“no obvious toxicity” means cell livability ≧75% using MTT method); Toxicity to cell ([14]; concentration 0.2 μmol/ml): − (“no obvious toxicity” means cell livability ≧75% using MTT method); Toxicity to cell ([14]; concentration 0.4 μmol/ml): − (“no obvious toxicity” means cell livability ≧75% using MTT method); effects on the central nervous system [16]: sedative effects on the central nervous system; inhibitory effects on HIV viruses (in words) [17]: certain inhibitory effects on HIV viruses; IC50 ([17]; Human immunodeficiency virus 1, read-out: IC50): 12.5 µg/mL
Cc1cn([C@H]2C[C@H](N=[N+]=[N-])[C@@H](CO)O2)c(=O)[nH]c1=O [AZT, zidouvding, reference compound] |  |  |  |  |  |  |  |  |  |  |  |  |  |  |  |  |  |  |  | 500 (≈ 1870 µM) | IC50 [17]: 0.1 µg/mL (≈ 0.374 µM)
COc1cc2cc[n+]3cc4c5c(ccc4c(C)c3c2cc1O)OCO5 [dehydroapocavidine] |  | 5.14 ± 0.48 g liver wt./100 g body wt. | 823.26 ± 178.42 | 241.13 ± 62.81 | certain preventive effects on arrhythmia induced by aconitine | 1027.10 ± 277.38 | 345.20 ± 68.29 | 4.47 ± 0.47 g liver wt./100 g body wt. | 26.5 | 33.5 | 62.1 | 955.36 ± 327.18 | 903.52 ± 256.94 | 973.2 ± 273.5 | 1057.1 ± 338.7 | 0.175 ± 0.018 | 15.7 | 21.3 | 28.6 | 250 | ED50 (10^−6 mol/Kg) ([4]; rats, vena femoralis injection, regression on aconitine dosage consumed by VF): 4.26 10^−6 mol/Kg; inhibitory effects on influenza viruses (in words) [1]: markedly inhibitory effects on influenza viruses; Toxicity to cell ([14]; concentration 0.1 μmol/ml): − (“no obvious toxicity” means cell livability ≧75% using MTT method); Toxicity to cell ([14]; concentration 0.2 μmol/ml): − (“no obvious toxicity” means cell livability ≧75% using MTT method); Toxicity to cell ([14]; concentration 0.4 μmol/ml): − (“no obvious toxicity” means cell livability ≧75% using MTT method); inhibitory effects on HIV viruses (in words) [17]: certain inhibitory effects on HIV viruses; IC50 [17]: 6.25 µg/mL
Nc1ccn([C@@H]2CS[C@H](CO)O2)c(=O)n1 [3TC, reference compound] |  |  |  |  |  |  |  |  |  |  |  |  |  |  |  |  |  |  |  |  | Inhibition frequency to HBeAg (%) ([6]; concentration 1.0 μmol/ml): 24.5%; Inhibition frequency to HBsAg (%) ([9]; concentration 1.0 μmol/ml): 4.8%
